Assay: Safety in three open label clinical studies
Assay type: in vivo, human
Method: The safety of the disclosed compositions were evaluated in three open label clinical studies, two studies (N=150 and N=44) in patients with ovarian cancer and one study (N=100) in patients with cancer in the lung. A total of 294 patients received 0.025 mg/kg of the disclosed compositions via intravenous administration. The mean age of patients was 63.5 years; 51% were 65 years of age or older; 89% of patients were female; and 84% of patients were white.

CC1(C)C(=CC=C2CCCC(C=CC3=[N+](CCCCS(=O)(=O)[O-])c4ccc(S(=O)(=O)O)cc4C3(C)C)=C2Oc2ccc(CC(NC(=O)c3ccc(NCc4cnc5nc(N)[nH]c(=O)c5n4)cc3)C(=O)O)cc2)N(CCCCS(=O)(=O)O)c2ccc(S(=O)(=O)O)cc21 (stereo not shown) [pafolacianine]
Adverse reaction: abdominal pain (294 patients, 0.025 mg/kg IV): 2.7% | Adverse reaction: chest discomfort (294 patients, 0.025 mg/kg IV): 1% | Adverse reaction: dyspepsia (294 patients, 0.025 mg/kg IV): 1% | Adverse reaction: flushing (294 patients, 0.025 mg/kg IV): 1.7% | Adverse reaction: hypersensitivity (294 patients, 0.025 mg/kg IV): 1% | Adverse reaction: nausea (294 patients, 0.025 mg/kg IV): 15% | Adverse reaction: pruritus (294 patients, 0.025 mg/kg IV): 1% | Adverse reaction: vomiting (294 patients, 0.025 mg/kg IV): 5.8% | patients with adverse reactions during the administration (294 patients, 0.025 mg/kg IV): 2.4% | time of occurrence of reactions after start of infusion (typically): ≤ 15 min
